pIC50: −log10 of the molar value.
Experiments:
[1] = system: sumoylation levels (SUMO 2/3 conjugates) in HCT-116 cells; assay: HCT-116 4 Hour Cell Assay (Western, SUMO 2/3 conjugates); assay type: cell-based; settings: Homo sapiens, HCT-116, 4 h, 4 h treatment, Anti-Sumo 2-3 immunoblot, read-out: HCT-116 Western 4 h IC50 (μM) Ave
In short: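 Cells treated 4 h with 11 three-fold dilutions from 25 μM; lysed in RIPA with NEM and Benzonase. Non-reducing SDS-PAGE immunoblot with anti-SUMO 2/3 mAb, IRDye fluorescent detection; conjugate signal normalized to total protein stain, IC50 from quantified bands.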

[2] = target: SAE1 (Homo sapiens (Human), UniProt Q9UBT2); assay: SAE High Throughput Biochemical Assay (HTRF), 15 min preincubation; settings: SAE1 12.5 nM, ATP 100 μM
Chain of SAE1 (Homo sapiens (Human), UniProt Q9UBT2) (Q9UBE0 whole entry): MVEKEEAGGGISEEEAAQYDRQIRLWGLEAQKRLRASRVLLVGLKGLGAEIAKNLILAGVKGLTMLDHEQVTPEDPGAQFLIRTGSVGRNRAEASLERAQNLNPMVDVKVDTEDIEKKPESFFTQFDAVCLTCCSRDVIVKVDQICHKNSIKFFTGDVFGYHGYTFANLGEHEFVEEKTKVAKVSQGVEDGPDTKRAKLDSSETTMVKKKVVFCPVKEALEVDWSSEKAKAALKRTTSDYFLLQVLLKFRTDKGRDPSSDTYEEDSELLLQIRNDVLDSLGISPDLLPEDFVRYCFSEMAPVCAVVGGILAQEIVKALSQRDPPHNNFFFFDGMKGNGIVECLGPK
Chain of SAE1 (Homo sapiens (Human), UniProt Q9UBT2) (Q9UBT2 whole entry): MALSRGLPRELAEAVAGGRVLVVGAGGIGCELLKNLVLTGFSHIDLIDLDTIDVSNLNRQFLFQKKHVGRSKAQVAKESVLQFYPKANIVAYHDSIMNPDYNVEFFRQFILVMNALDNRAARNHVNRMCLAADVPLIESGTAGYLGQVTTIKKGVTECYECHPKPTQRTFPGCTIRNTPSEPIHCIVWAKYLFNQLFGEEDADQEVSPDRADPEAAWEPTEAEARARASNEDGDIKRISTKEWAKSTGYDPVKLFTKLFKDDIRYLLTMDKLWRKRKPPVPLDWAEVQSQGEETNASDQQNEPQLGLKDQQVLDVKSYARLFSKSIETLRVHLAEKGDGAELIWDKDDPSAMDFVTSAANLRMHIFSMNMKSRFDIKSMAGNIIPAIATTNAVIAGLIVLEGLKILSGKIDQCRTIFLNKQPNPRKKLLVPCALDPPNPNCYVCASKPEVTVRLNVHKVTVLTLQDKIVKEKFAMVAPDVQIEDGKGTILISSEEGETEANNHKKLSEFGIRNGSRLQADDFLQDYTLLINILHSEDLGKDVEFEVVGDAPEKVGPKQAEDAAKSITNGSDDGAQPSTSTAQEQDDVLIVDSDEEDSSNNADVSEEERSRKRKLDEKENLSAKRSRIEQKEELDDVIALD
In short: (§1)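 SAE1 (12.5 nM) was preincubated with compound for 15 min at RT in HEPES pH 7.5, 0.1% BSA, 10 mM MgCl2. The reaction was then started with SUMO-GST and UBC9-His (40 nM each) plus 100 μM ATP for 45 min. After KF stop, HTRF (anti-GST-XL665/anti-His-EuK) was read at 2 h and overnight; some compounds were tested singly at 25 micromolar as percent of control.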

[3] = target: SAE1 (Homo sapiens (Human), UniProt Q9UBE0+Q9UBT2); assay: as above; settings: read-out: 15 min preincubation HTRF IC50 (μM) Ave, SAE1 12.5 nM, ATP 100 μM
Chain of SAE1 (Homo sapiens (Human), UniProt Q9UBE0+Q9UBT2) (Q9UBE0 whole entry): as the sequence (Q9UBE0 whole entry) above
Chain of SAE1 (Homo sapiens (Human), UniProt Q9UBE0+Q9UBT2) (Q9UBT2 whole entry): as the sequence (Q9UBT2 whole entry) above
In short: as §1

| IC50 [1] | Compound | pIC50 [2] | IC50 [3] |
| --- | --- | --- | --- |
| 0.0473 µM | CCn1cc(-c2c(F)cccc2[C@@H]2CN(C(=O)/C=C\CN(C)C)Cc3sc(C#N)c(C)c32)c(C(F)(F)F)n1 [Compound 223] | 7.28 | – |
| 0.298 µM | CCn1cc(-c2c(F)cccc2[C@@H]2CN(C(=O)/C=C\CNC)Cc3sc(C#N)c(C)c32)c(C(F)(F)F)n1 [Compound 225] | 7.47 | – |
| 0.285 µM | CCn1cc(-c2ccccc2[C@@H]2CN(C(=O)/C=C/C(C)N(C)C)Cc3sc(C#N)cc32)c(C(F)(F)F)n1 (stereo partly drawn) [Compound 235] | 5.38 | – |
| – | CCOC/C=C/C(=O)N1Cc2sc(C#N)cc2[C@H](c2ccccc2-c2cn(CC)nc2C(F)(F)F)C1 [Example 8, (S, E)-6-(4-Ethoxybut-2-enoyl)-4-(2-(1-ethyl-3-(trifluoromethyl)-1 H-pyrazol-4-yl)phenyl)-4,5,6,7 tetrahydrothieno[2,3-c]pyridine-2-carbonitrile] | 4.97 | – |
| – | CCn1cc(-c2ccccc2[C@@H]2CN(C(=O)/C=C/CN(C)OC)Cc3sc(C#N)cc32)c(C(F)(F)F)n1 [Example 11, (S, E)-4-(2-(1-Ethyl-3-(trifluoromethyl)-1 H-pyrazol-4-yl)phenyl)-6-(4-(methoxy(methyl)amino)but-2-enoyl)-4,5,6,7-tetrahydrothieno[2,3-c]pyridine-2-carbonitrile] | < 4.60 | – |
| – | CCn1cc(-c2ccccc2[C@@H]2CN(C(=O)/C=C/[C@H](C)N(C)C)Cc3sc(C#N)cc32)c(C(F)(F)F)n1 [Example 13, (S)-6-((S, E)-4-(dimethylamino)pent-2-enoyl)-4-(2-(1-ethyl-3-(trifluoromethyl)-1 H-pyrazol-4-yl)phenyl)-4,5,6,7-tetrahydrothieno[2,3-c]pyridine-2-carbonitrile] | 5.21 | – |
| – | CCC(/C=C/C(=O)N1Cc2sc(C#N)cc2[C@H](c2ccccc2-c2cn(CC)nc2C(F)(F)F)C1)N(C)C (stereo partly drawn) [Example 24, (4S)-6-((E)-4-(dimethylamino)hex-2-enoyl)-4-(2-(1-ethyl-3-(trifluoromethyl)-1 H-pyrazol-4-yl)phenyl)-4,5,6,7-tetrahydrothieno[2,3-c]pyridine-2-carbonitrile] | < 4.60 | – |
| – | CCC(N)/C=C/C(=O)N1Cc2sc(C#N)cc2[C@H](c2ccccc2-c2cn(CC)nc2C(F)(F)F)C1 (stereo partly drawn) [Example 39, (4S)-6-((E)-4-aminohex-2-enoyl)-4-(2-(1-ethyl-3-(trifluoromethyl)-1 H-pyrazol-4-yl)phenyl)-4,5,6,7-tetrahydrothieno[2,3-c]pyridine-2-carbonitrile] | 5.07 | – |
| – | CCn1cc(-c2ccccc2[C@@H]2CN(C(=O)/C=C/C(N)C3CC3)Cc3sc(C#N)cc32)c(C(F)(F)F)n1 (stereo partly drawn) [Example 42, (4S)-6-((E)-4-amino-4-cyclopropylbut-2-enoyl)-4-(2-(1-ethyl-3-(trifluoromethyl)-1 H-pyrazol-4-yl)phenyl)-4,5,6,7-tetrahydrothieno[2,3-c]pyridine-2-carbonitrile] | 5.08 | – |
| – | CCn1cc(-c2ccccc2[C@@H]2CN(C(=O)/C=C/C(N)Cc3ccccc3)Cc3sc(C#N)cc32)c(C(F)(F)F)n1 (stereo partly drawn) [Example 44, (4S)-6-((E)-4-amino-5-phenylpent-2-enoyl)-4-(2-(1-ethyl-3-(trifluoromethyl)-1 H-pyrazol-4-yl)phenyl)-4,5,6,7-tetrahydrothieno[2,3-c]pyridine-2-carbonitrile] | 5.01 | – |
| – | CCn1cc(-c2ccccc2[C@@H]2CN(C(=O)/C=C/CCNC)Cc3sc(C#N)cc32)c(C(F)(F)F)n1 [Example 45, (S, E)-4-(2-(1-ethyl-3-(trifluoromethyl)-1 H-pyrazol-4-yl)phenyl)-6-(5-(methylamino)pent-2-enoyl)-4,5,6,7-tetrahydrothieno[2,3-c]pyridine-2-carbonitrile] | 4.64 | – |
| – | CCn1cc(-c2ccccc2[C@@H]2CN(C(=O)/C=C/CNC3(C)CNC3)Cc3sc(C#N)cc32)c(C(F)(F)F)n1 [Example 98, (S,E)-4-(2-(1-Ethyl-3-(trifluoromethyl)-1H pyrazol-4-yl)phenyl)-6-(4-((3-methylazetidin-3-yl)amino)but-2-enoyl)-4,5,6,7-tetrahydrothieno[2,3-c]pyridine-2-carbonitrile] | < 4.60 | – |
| – | CCn1cc(-c2ccccc2[C@@H]2CN(C(=O)/C=C/C3CNC3)Cc3sc(C#N)cc32)c(C(F)(F)F)n1 [Example 108, (S, E)-6-(3-(Azetidin-3-yl)acryloyl)-4-(2-(1-ethyl-3-(trifluoromethyl)-1 H-pyrazol-4-yl)phenyl)-4,5,6,7-tetrahydrothieno[2,3-c]pyridine-2-carbonitrile] | 4.96 | – |
| – | CCn1cc(-c2cc(C(=O)NC)ccc2C2CN(C(=O)/C=C/CN(C)C)Cc3sc(C#N)cc32)c(C(F)(F)F)n1 (stereo not drawn) [Example 208, (E)-4-(2-Cyano-6-(4-(dimethylamino)but-2-enoyl)-4,5,6,7-tetrahydrothieno[2,3-c]pyridin-4-yl)-3-(1-ethyl-3-(trifluoromethyl)-1 H pyrazol-4-yl)-N-methylbenzamide] | < 4.60 | – |
| 0.483 µM | CCn1cc(-c2c(F)cccc2[C@@H]2CN(C(=O)/C=C/CNC34CC(C3)C4)Cc3sc(C#N)cc32)c(C(F)(F)F)n1 [Example 246, (S, E)-6-(4-(bicyclo[1.1.1]pentan-1-ylamino)but-2-enoyl)-4-(2-(1-ethyl-3-(trifluoromethyl)-1 H-pyrazol-4-yl)-3-fluorophenyl)-4,5,6,7-tetrahydrothieno[2,3-c]pyridine-2-carbonitrile] | – | 1.65 µM |
| 0.263 µM | CN(C)C/C=C/C(=O)N1Cc2sc(C#N)cc2[C@H](c2cccc(F)c2-c2cn(C)nc2C(F)(F)F)C1 [Example 250, (S)-6-((E)-4-(dimethylamino)but-2-enoyl)-4-((S)-3-fluoro-2-(1-methyl-3-(trifluoromethyl)-1 H-pyrazol-4-yl)phenyl)-4,5,6,7-tetrahydrothieno[2,3-c]pyridine-2-carbonitrile] | – | 0.76 µM |
| 0.0822 µM | Cc1c(C#N)sc2c1[C@H](c1cccc(F)c1-c1cn(C)nc1C(F)(F)F)CN(C(=O)/C=C/[C@@H]1CCCN1)C2 [Example 251, (S)-4-(3-fluoro-2-(1-methyl-3-(trifluoromethyl)-1 H-pyrazol-4-yl)phenyl)-3-methyl-6-((E)-3-((S)-pyrrolidin-2-yl)acryloyl)-4,5,6,7-tetrahydrothieno[2,3-c]pyridine-2-carbonitrile] | – | 0.11 µM |
| 0.288 µM | CC[C@H]1CNC(/C=C/C(=O)N2Cc3sc(C#N)cc3[C@H](c3cccc(F)c3-c3cn(CC)nc3C(F)(F)F)C2)C1 (stereo partly drawn) [Example 252, (S)-4-((S)-2-(1-ethyl-3-(trifluoromethyl)-1 H-pyrazol-4-yl)-3-fluorophenyl)-6-((E)-3-((2S,4R)-4-ethylpyrrolidin-2-yl)acryloyl)-4,5,6,7-tetrahydrothieno[2,3-c]pyridine-2-carbonitrile] | – | 0.39 µM |
| 0.919 µM | CCn1cc(-c2c(F)cccc2[C@@H]2CN(C(=O)/C=C/C3CC(F)(F)CN3)Cc3sc(C#N)cc32)c(C(F)(F)F)n1 (stereo partly drawn) [Example 253, (S)-6-((E)-3-((S)-4,4-difluoropyrrolidin-2-yl)acryloyl)-4-((S)-2-(1-ethyl-3-(trifluoromethyl)-1 H-pyrazol-4-yl)-3-fluorophenyl)-4,5,6,7-tetrahydrothieno[2,3-c]pyridine-2-carbonitrile 2,2,2-trifluoroacetate] | – | 2.92 µM |

Source: patent US20240360148A1 (SUVALENT THERAPEUTICS, INC., priority 2021, published 2024)
